Data: PubChem BioAssay (NCI)
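Protocol summary: plate cells (96-well), add compound at 5 concentrations, incubate 48 h, interpolate endpoints linearly. Here, GI50 denotes the concentration required for 50% inhibition of growth. The concentration for full growth arrest is given as TGI.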 *1 amine or outer side, *2 acyl side, *3 side chain or, on linkers, in order; H or OH if unused. Where a SMILES comes first, the peptide text is derived from it. Bridges are numbered along the chain shown (N, C = ends). [ ]: non-standard residue; d: D form. The star is where a group is joined. Phe(3,5-F2) = N[C@@H](Cc1cc(F)cc(F)c1)C(=O)O; Pro(4R-Me) = C[C@H]1CN[C@H](C(=O)O)C1; aThr = C[C@H](O)[C@H](N)C(=O)O; Pip = O=C(O)[C@@H]1CCCCN1; X10 = Fc1cc(C2CC2)ccc1N*; CO = O=C([*:1])[*:2]

Tests used:
Experiment in all cases: NCI-60 cell line screen, 48 h
LOX IMVI melanoma = test system: LOX IMVI melanoma
NCI-H522 lung = test system: NCI-H522 lung
EKVX NSCLC = test system: EKVX NSCLC
SK-MEL-2 melanoma = test system: SK-MEL-2 melanoma
SR leukemia = test system: SR leukemia
NCI-H460 lung = test system: NCI-H460 lung
MDA-MB-231 breast = test system: MDA-MB-231 breast
SF-268 CNS = test system: SF-268 CNS
DU-145 prostate = test system: DU-145 prostate
A498 renal = test system: A498 renal

SMILES	TGI (LOX IMVI melanoma) [µM]	TGI (NCI-H522 lung) [µM]	TGI (EKVX NSCLC) [µM]	TGI (SK-MEL-2 melanoma) [µM]	TGI (SR leukemia) [µM]	TGI (NCI-H460 lung) [µM]	TGI (MDA-MB-231 breast) [µM]	TGI (SF-268 CNS) [µM]	TGI (DU-145 prostate) [µM]	TGI (A498 renal) [µM]	GI50 (NCI-H522 lung) [µM]	GI50 (SK-MEL-2 melanoma) [µM]	GI50 (SR leukemia) [µM]	GI50 (NCI-H460 lung) [µM]	GI50 (MDA-MB-231 breast) [µM]	GI50 (SF-268 CNS) [µM]	GI50 (DU-145 prostate) [µM]	GI50 (A498 renal) [µM]	GI50 (LOX IMVI melanoma) [µM]	GI50 (EKVX NSCLC) [µM]
Fc1ccc(NC(=S)SCc2ccc3c(c2)OCO3)cc1F	28.6	35.4	34.1	36	43.9	> 100	> 100	52.8	> 100	61.8	–	–	–	–	–	–	–	–	–	–
CN1CCCCC1CCN1c2ccccc2Sc2ccc(Cl)cc21 (stereo not drawn)	–	7.37	–	8.97	–	8.44	6.32	8.85	17.6	10.8	2.31	3.06	3.2	2.77	2.09	2.99	5.5	2.7	–	–
C[C@@H]1C[C@H]2C(=O)O[C@@H](C)[C@H](NC(=O)[C@H](Cc3cc(F)cc(F)c3)NC(=O)Nc3ccc(C4CC4)cc3F)C(=O)N3CCC[C@H]3C(=O)N3CCCC[C@H]3C(=O)N[C@@H](C)C(=O)N2C1 ({X10-CO}-[Phe(3,5-F2)][aThr]P[Pip]A[Pro(4R-Me)]; ester 2-C)	11.5	–	> 95.6	3.83	5.67	4.55	1.3	> 46.9	> 56.9	0.363	0.0441	0.0549	0.0633	0.0391	0.0402	0.049	0.053	0.0203	0.0668	0.0613
O=C1NC(=NCCc2cccc(F)c2)S/C1=C\c1ccc2ncccc2c1	> 25	24.9	–	> 25	> 25	> 25	> 25	> 25	> 25	> 25	3.59	15.8	0.121	1.39	> 25	10.7	10.1	3.89	1.75	–
COc1ccc2c(c1)sc1nc(-c3ccccc3)c(-c3cccc4ccccc34)n12	> 100	28.2	> 100	> 100	> 100	> 35.2	> 100	> 100	> 31.9	> 30	0.661	1.67	0.323	0.416	1.32	0.878	0.767	0.601	0.713	1.61
COc1cc(/C=N\NC(=O)CN2CCN(c3cc4c(cc3F)c(=O)c(C(=O)N/N=C/c3cc(OC)c(OC)c(OC)c3)cn4C3CC3)CC2)cc(OC)c1OC	0.343	–	> 100	0.513	> 100	0.636	0.781	–	> 20	23.7	0.249	0.204	0.324	0.251	0.25	0.292	0.495	0.299	0.176	–
NS(=O)(=O)c1ccc2c(c1)OCCOCCOCCOCCO2	> 100	> 100	> 100	–	> 100	> 100	> 100	> 100	> 100	> 100	–	–	–	–	–	–	–	–	–	–
